Experimental data: patent US20140249135A1, “PIM KINASE INHIBITORS AND METHODS OF THEIR USE” (NOVARTIS AG, priority 2007, published 2014)
Like-named read-outs stand apart in the source and are kept apart here.

Key:
HEL 92.1.7 cells = test: Cell proliferation assay (CellTiter-Glo), HEL 92.1.7; assay type: cell-based; details: Homo sapiens
Protocol: HEL 92.1.7 cells (ATTC No. TIB-180, an erythroleukemia line derived from malignant peripheral blood), MV4-11 cells (ATCC No. CRL-9591, a human acute monocytic leukemia line) and PC3 cells (ATCC No. CRL-1435, a human prostatic adenocarcinoma line) were cultured in RPMI1640 supplemented with 10% FBS, sodium pyruvate and antibiotics. Cells were plated in the same medium at a density of 1000 cells per well into 96 well tissue culture plates, with outside wells vacant, on the day of assay.
Test compounds supplied in DMSO were diluted into DMSO at 500 times the desired final concentrations before dilution into culture media to 2 times final concentrations. Equal volumes of 2× compounds were added to the cells in 96 well plates and incubated at 37° C. for 3 days.
After 3 days plates were equilibrated to room temperature and equal volume of CellTiter-Glow Reagent (Promega) was added to the culture wells. The plates were agitated briefly and luminescent signal was measured with luminometer. The percent inhibition of the signal seen in cells treated with DMSO alone vs. cells treated with control compound was calculated and used to determine EC50 values (i.e., the concentration of a test compound that is required to obtain 50% of the maximum effect in the cells) for tested compounds, as shown in Example 763.

Pim3 kinase = Pim3 kinase (Homo sapiens, UniProt Q86V86); test: Pim3 ATP depletion assay; assay type: biochemical
Pim1 kinase = Pim1 kinase (Homo sapiens, UniProt P11309); test: Pim1 ATP depletion assay; assay type: biochemical; details: Pim1 ATP depletion assay;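 also: Luciferase-luciferin luminescence readout of residual ATP after PIM1 transfers phosphate to a peptide substrate, 40 µM ATP added, reaction run to roughly half ATP consumption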
Pim2 kinase = Pim2 kinase (Homo sapiens, UniProt Q9P1W9); test: Pim2 ATP depletion assay; assay type: biochemical;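 also: Luciferase-based luminescent readout of ATP remaining after PIM2 phosphorylates a BAD peptide, final 5 nM enzyme, 4 µM ATP, 10 µM peptide, 2.5% DMSO, run to roughly half ATP consumption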
[1] = target: T1, human full length PKCE enzyme (Homo sapiens, UniProt Q02156); test: In vitro PKCE assay; assay type: biochemical; details: 10 nM enzyme, 40 uM peptide substrate, 20 uM ATP, KinaseGlo Plus readout; read-out: PKCε IC50
T1 construct: human full length PKCE enzyme purchased from InVitrogen; purchased InVitrogen
T1 sequence (Q02156 1-737): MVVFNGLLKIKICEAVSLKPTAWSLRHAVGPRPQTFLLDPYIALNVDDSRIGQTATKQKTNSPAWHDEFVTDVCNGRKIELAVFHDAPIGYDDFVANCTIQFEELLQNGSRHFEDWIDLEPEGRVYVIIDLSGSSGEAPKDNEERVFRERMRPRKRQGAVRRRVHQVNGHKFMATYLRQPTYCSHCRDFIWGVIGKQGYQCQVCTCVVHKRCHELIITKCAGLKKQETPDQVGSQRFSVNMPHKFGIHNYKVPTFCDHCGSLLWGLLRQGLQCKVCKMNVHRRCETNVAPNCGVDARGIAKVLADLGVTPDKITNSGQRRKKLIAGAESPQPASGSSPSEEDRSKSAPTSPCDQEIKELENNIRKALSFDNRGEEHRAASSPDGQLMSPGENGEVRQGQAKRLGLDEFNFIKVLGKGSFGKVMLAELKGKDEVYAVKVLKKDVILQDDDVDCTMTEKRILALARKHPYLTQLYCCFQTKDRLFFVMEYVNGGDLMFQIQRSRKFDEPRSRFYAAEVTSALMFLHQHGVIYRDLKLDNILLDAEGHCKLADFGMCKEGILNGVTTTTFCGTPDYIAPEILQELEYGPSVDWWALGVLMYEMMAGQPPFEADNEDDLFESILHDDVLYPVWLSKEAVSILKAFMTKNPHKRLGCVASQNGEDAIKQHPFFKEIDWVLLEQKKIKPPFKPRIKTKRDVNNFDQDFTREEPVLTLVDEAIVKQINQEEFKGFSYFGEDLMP

KDR kinase = KDR kinase (Homo sapiens, UniProt P35968); test: KDR AlphaScreen assay; details: KDR IC50 (μM)
Chain of KDR kinase (P35968 20-1356): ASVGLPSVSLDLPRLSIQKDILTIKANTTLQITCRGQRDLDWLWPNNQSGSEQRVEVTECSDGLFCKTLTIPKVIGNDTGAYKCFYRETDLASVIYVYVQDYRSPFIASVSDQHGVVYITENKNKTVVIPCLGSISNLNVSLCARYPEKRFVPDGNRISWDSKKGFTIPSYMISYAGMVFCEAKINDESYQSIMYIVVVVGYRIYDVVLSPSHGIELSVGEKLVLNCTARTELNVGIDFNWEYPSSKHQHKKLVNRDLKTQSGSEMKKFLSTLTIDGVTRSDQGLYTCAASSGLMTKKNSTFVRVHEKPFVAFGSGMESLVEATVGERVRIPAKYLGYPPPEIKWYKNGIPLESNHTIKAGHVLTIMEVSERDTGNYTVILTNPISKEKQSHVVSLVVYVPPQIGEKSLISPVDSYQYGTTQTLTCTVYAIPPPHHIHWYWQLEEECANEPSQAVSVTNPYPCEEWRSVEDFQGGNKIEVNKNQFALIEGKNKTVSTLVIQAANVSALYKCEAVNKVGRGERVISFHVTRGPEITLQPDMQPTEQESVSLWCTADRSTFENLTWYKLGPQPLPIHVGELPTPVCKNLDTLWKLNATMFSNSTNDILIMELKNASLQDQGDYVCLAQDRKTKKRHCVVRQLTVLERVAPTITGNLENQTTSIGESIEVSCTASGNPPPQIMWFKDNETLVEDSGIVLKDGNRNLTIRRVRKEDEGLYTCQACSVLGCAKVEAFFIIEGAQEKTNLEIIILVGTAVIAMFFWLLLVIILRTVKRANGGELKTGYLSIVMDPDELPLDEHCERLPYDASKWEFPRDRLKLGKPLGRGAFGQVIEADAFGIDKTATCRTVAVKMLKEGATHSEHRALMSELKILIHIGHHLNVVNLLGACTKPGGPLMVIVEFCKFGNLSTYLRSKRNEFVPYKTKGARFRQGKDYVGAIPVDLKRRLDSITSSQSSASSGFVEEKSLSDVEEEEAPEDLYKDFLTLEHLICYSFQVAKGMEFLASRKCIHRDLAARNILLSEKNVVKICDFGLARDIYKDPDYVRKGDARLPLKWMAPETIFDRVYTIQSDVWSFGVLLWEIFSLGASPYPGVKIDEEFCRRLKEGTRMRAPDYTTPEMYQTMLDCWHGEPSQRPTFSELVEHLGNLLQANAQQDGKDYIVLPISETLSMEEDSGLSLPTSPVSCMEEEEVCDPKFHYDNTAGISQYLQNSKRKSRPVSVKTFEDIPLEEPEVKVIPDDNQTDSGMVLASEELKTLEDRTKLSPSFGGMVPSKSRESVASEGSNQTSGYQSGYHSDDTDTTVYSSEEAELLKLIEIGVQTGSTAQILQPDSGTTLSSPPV

Chain of Pim1 kinase (P11309 whole entry): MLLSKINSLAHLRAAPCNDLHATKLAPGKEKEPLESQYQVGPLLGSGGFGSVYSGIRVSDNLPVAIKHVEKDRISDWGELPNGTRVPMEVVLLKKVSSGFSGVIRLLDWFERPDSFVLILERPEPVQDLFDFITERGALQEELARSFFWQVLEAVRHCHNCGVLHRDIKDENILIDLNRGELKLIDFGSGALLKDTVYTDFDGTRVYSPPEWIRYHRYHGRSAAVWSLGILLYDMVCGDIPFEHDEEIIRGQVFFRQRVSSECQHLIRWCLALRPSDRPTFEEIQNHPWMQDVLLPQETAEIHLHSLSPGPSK
Chain of Pim2 kinase (Q9P1W9 whole entry): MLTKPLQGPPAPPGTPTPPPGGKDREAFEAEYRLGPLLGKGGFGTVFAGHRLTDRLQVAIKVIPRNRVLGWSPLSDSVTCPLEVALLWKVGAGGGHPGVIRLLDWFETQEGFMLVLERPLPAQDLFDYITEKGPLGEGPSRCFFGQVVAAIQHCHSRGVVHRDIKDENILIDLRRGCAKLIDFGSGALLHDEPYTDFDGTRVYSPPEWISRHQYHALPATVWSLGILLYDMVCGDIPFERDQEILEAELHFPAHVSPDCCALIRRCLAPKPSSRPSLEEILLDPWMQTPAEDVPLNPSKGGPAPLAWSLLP

Row | Structure (SMILES) | IC50 (Pim3 kinase; read-out: IC50 (μM) PIM3) [µM] | IC50 (Pim1 kinase; read-out: IC50 (μM) PIM1) [µM] | IC50 (Pim2 kinase; read-out: IC50 (μM) PIM2) [µM] | IC50 (Pim3 kinase; read-out: PIM3 IC50) [µM] | IC50 (Pim1 kinase; read-out: PIM1 IC50) [µM] | IC50 (Pim2 kinase; read-out: PIM2 IC50) [µM] | IC50 [1] [µM] | IC50 (KDR kinase) [µM] | EC50 (HEL 92.1.7 cells; read-out: EC50 (μM) HEL 92.1.7) [µM] | EC50 (HEL 92.1.7 cells; read-out: HEL 92.1.7 EC50) [µM]
1 | CCN(CC)S(=O)(=O)c1ccc(C)c(-c2ccc(N)c(C(=O)Nc3cnccc3N3CCC[C@H](N)C3)n2)c1 [Example 329, 3-amino-6-(5-diethyl-sulfamoyl-2-methyl-phenyl)-pyridine-2-carboxylic acid ((S)-3-amino-3,4,5,6-tetra-hydro-2H-[1,4′]bipyridinyl-3′-yl)-amide] | < 1 | < 1 | < 1 | – | – | – | – | – | 5 to 10 | –
2 | COc1ccccc1-c1ccc(N)c(C(=O)Nc2cnccc2N2CCC[C@H](N)C2)n1 [Example 337] | < 1 | < 1 | < 1 | – | – | – | – | – | 5 to 10 | –
3 | Nc1ccc(-c2ccncc2)nc1C(=O)Nc1cnccc1N1CCC[C@H](N)C1 [Example 415, 5-amino-[2,4′]bipyridinyl-6-carboxylic acid ((S)-3-amino-3,4,5,6-tetrahydro-2H-[1,4′]bi-pyridinyl-3′-yl)-amide] | < 1 | < 1 | < 1 | – | – | – | – | – | < 1 | –
4 | Nc1ccc(-c2cccnc2)nc1C(=O)Nc1cnccc1N1CCC[C@H](N)C1 [Example 414, 5-amino-[2,3′]bipyridinyl-6-carboxylic acid ((S)-3-amino-3,4,5,6-tetrahydro-2H-[1,4′]bi-pyridinyl-3′-yl)-amide] | < 1 | < 1 | < 1 | – | – | – | – | – | 1 to 5 | –
5 | Cc1ccc(S(=O)(=O)N2CCCC2)cc1-c1ccc(N)c(C(=O)Nc2cnccc2N2CCC[C@H](N)C2)n1 [Example 321, 3-amino-6-[2-methyl-5-(pyrrolidine-1-sulfonyl)-phenyl]-pyridine-2-carboxylic acid ((S)-3-amino-3,4,5,6-tetrahydro-2H-[1,4′]bi-pyridinyl-3′-yl)-amide] | < 1 | < 1 | < 1 | – | – | – | – | – | 1 to 5 | –
6 | CS(=O)(=O)c1ccc(-c2ccc(N)c(C(=O)Nc3cnccc3N3CCC[C@H](N)C3)n2)cc1 [Example 319, 3-amino-6-(4-methane-sulfonyl-phenyl)-pyridine-2-carboxylic acid ((S)-3-amino-3,4,5,6-tetrahydro-2H-[1,4′]bi-pyridinyl-3′-yl)-amide] | < 1 | < 1 | < 1 | – | – | – | – | – | 1 to 5 | –
7 | Nc1ncc(Br)nc1C(=O)Nc1cnccc1N1CCCC(N)C1 (centres unmarked) [Example 181, 3-amino-N-[4-(3-aminopiperidin-1-yl)pyridin-3-yl]-6-bromopyrazine-2-carboxamide] | < 1 | < 1 | < 1 | – | – | – | – | – | < 1 | –
8 | Cc1cccc(C)c1-c1ccc(N)c(C(=O)Nc2cnccc2N2CCC[C@H](N)C2)n1 [Example 426, 3-amino-6-(2,6-dimethyl-phenyl)-pyridine-2-carboxylic acid ((S)-3-amino-3,4,5,6-tetra-hydro-2H-[1,4′]bipyridinyl-3′-yl)-amideQ] | < 1 | < 1 | < 1 | – | – | – | – | – | 5 to 10 | –
9 | COc1ncccc1-c1ccc(N)c(C(=O)Nc2cnccc2N2CCCCC2)n1 [Example 587, 5-amino-2′-methoxy-[2,3′]bi-pyridinyl-6-carboxylic acid (3,4,5,6-tetrahydro-2H-[1,4′]bipyridinyl-3′-yl)-amide] | – | – | – | < 1 | < 1 | < 1 | – | – | – | < 1
10 | Nc1ccc(-c2cccnc2Cl)nc1C(=O)Nc1cnccc1N1CCC[C@H](N)C1 [Example 331, 5-amino-2′-chloro-[2,3′]bi-pyridinyl-6-carboxylic acid ((S)-3-amino-3,4,5,6-tetra-hydro-2H-[1,4′]bipyridinyl-3′-yl)-amide] | < 1 | < 1 | < 1 | – | – | – | – | – | 1 to 5 | –
11 | Cc1ccc(-c2ccc(N)c(C(=O)Nc3cnccc3N3CCC[C@H](N)C3)n2)c(F)c1 [Example 432, 3-amino-6-(2-fluoro-4-methyl-phenyl)-pyridine-2-carboxylic acid ((S)-3-amino-3,4,5,6-tetra-hydro-2H-[1,4′]bipyridinyl-3′-yl)-amide] | – | – | – | – | – | – | – | – | 1 to 5 | –
12 | Nc1nccnc1C(=O)Nc1cc(C(F)(F)F)ccc1N1CCNCC1 [Example 224, 3-amino-N-[2-piperazin-1-yl-5-(trifluoromethyl)phenyl]pyrazine-2-carboxamide] | 1 to 10 | < 1 | > 25 | – | – | – | 1 to 10 | > 25 | – | –

Further lines, with some results ahead:

Row | IC50 (Pim3 kinase; read-out: IC50 (μM) PIM3) [µM] | IC50 (Pim1 kinase; read-out: IC50 (μM) PIM1) [µM] | IC50 (Pim2 kinase; read-out: IC50 (μM) PIM2) [µM] | IC50 (Pim3 kinase; read-out: PIM3 IC50) [µM] | IC50 (Pim1 kinase; read-out: PIM1 IC50) [µM] | IC50 (Pim2 kinase; read-out: PIM2 IC50) [µM] | IC50 [1] [µM] | IC50 (KDR kinase) [µM] | Structure (SMILES) | EC50 (HEL 92.1.7 cells; read-out: EC50 (μM) HEL 92.1.7) [µM] | EC50 (HEL 92.1.7 cells; read-out: HEL 92.1.7 EC50) [µM]
13 | < 1 | < 1 | < 1 | – | – | – | – | – | Nc1ccc(-c2ccncc2F)nc1C(=O)Nc1cnccc1N1CCC[C@H](N)C1 [Example 339, 5-amino-3′-fluoro-[2,4′]bi-pyridinyl-6-carboxylic acid ((S)-3-amino-3,4,5,6-tetra-hydro-2H-[1,4′]bipyridinyl-3′-yl)-amide] | 1 to 5 | –
14 | < 1 | < 1 | < 1 | – | – | – | – | – | Cc1cc(F)ccc1-c1ccc(N)c(C(=O)Nc2cnccc2N2CCC[C@H](N)C2)n1 [Example 430, 3-amino-6-(4-fluoro-2-methyl-phenyl)-pyridine-2-carboxylic acid ((S)-3-amino-3,4,5,6-tetra-hydro-2H-[1,4′]bipyridinyl-3′-yl)-amide] | 1 to 5 | –
15 | < 1 | < 1 | < 1 | – | – | – | – | – | CCNC(=O)c1ccc(F)c(-c2ccc(N)c(C(=O)Nc3cnccc3N3CCC[C@H](N)C3)n2)c1 [Example 327, 3-amino-6-(5-ethylcarbamoyl-2-fluoro-phenyl)-pyridine-2-carboxylic acid ((S)-3-amino-3,4,5,6-tetrahydro-2H-[1,4′]bi-pyridinyl-3′-yl)-amide] | 1 to 5 | –
16 | < 1 | < 1 | < 1 | – | – | – | – | – | CNC(=O)c1ccc(F)c(-c2ccc(N)c(C(=O)Nc3cnccc3N3CCC[C@H](N)C3)n2)c1 [Example 334, 3-amino-6-(2-fluoro-5-methylcarbamoyl-phenyl)-pyridine-2-carboxylic acid ((S)-3-amino-3,4,5,6-tetra-hydro-2H-[1,4′]bipyridinyl-3′-yl)-amide] | 5 to 10 | –
17 | < 1 | < 1 | < 1 | – | – | – | – | – | Cc1cc(Cl)ccc1-c1ccc(N)c(C(=O)Nc2cnccc2N2CCC[C@H](N)C2)n1 [Example 429, 3-amino-6-(4-chloro-2-methyl-phenyl)-pyridine-2-carboxylic acid ((S)-3-amino-3,4,5,6-tetra-hydro-2H-[1,4′]bipyridinyl-3′-yl)-amide] | 5 to 10 | –
18 | < 1 | < 1 | < 1 | – | – | – | – | – | Nc1ccc(-c2cc(C(=O)NC3CCCCC3)ccc2F)nc1C(=O)Nc1cnccc1N1CCC[C@H](N)C1 [Example 324, 3-amino-6-(5-cyclohexyl-carbamoyl-2-fluoro-phenyl)-pyridine-2-carboxylic acid ((S)-3-amino-3,4,5,6-tetra-hydro-2H-[1,4′]bipyridinyl-3′-yl)-amide] | < 1 | –
19 | < 1 | < 1 | < 1 | – | – | – | – | – | COc1cc(F)ccc1-c1ccc(N)c(C(=O)Nc2cnccc2N2CCC[C@H](N)C2)n1 [Example 428, 3-amino-6-(4-fluoro-2-methoxy-phenyl)-pyridine-2-carboxylic acid ((S)-3-amino-3,4,5,6-tetra-hydro-2H-[1,4′]bipyridinyl-3′-yl)-amide] | 5 to 10 | –
